According to patent US20260055083A1, “APOL1 INHIBITORS AND METHODS OF USE” (Maze Therapeutics, Inc., priority 2022, published 2026):

Assays:
APOL1 G2 [1] = biological target: T1, APOL1 G2 (Homo sapiens, UniProt O14791, DEL388-389); assay: APOL1 G2 FLIPR calcium influx assay (HEK T-REx/GCaMP6f/APOL1 G2 K6.3 cells); format: cell-based; conditions: HEK293 clone expressing GCaMP6f, doxycycline-induced APOL1 G2; prevention of calcium influx; geometric mean of at least 2 assay runs
T1 construct: expressed in transfected cells; host or cells: HEK293/T-REx APOL1 G2 clone #2, doxycycline-inducible
T1 sequence (O14791 with tags, fused parts or gaps DEL388-389): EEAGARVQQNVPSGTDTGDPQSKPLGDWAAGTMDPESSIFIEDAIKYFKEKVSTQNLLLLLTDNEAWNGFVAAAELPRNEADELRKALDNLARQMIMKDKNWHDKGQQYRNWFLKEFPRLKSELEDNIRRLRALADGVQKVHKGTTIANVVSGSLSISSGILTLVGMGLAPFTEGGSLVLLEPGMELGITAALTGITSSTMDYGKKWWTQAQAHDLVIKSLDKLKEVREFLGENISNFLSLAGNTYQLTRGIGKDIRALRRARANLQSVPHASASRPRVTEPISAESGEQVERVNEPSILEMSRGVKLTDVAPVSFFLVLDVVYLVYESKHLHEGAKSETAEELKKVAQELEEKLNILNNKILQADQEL
Method in brief: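 Cells express GCaMP6f stably and APOL1 G2 after a 6 h doxycycline induction. Duplicate 8-point dilutions sit 10 min at room temperature in Ca2+-free Tyrode's (pH 7.4), then Ca2+ is injected to 5 mM final and the FLIPR signal recorded. AC50s are geometric means across ≥2 days.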

APOL1 G2 [2] = biological target: T1, APOL1 G2; assay: APOL1 G2 HEK293 rescue of cell death caused by overexpression of APOL1 (CellTiter-Glo); format: cell-based; conditions: HEK293/T-REx APOL1 G2 clone #2, doxycycline induction, 17 hours, CellTiter-Glo luminescence; reversal of cell death; geometric mean of at least 2 assay runs
Method in brief: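 Viability read by CellTiter-Glo luminescence after 17 h, 37 °C, in HEK293/T-REx cells expressing APOL1 G2 on 6 ng/mL doxycycline, 5,000 cells/well. Compounds tested as duplicate 8-point, 3-fold dilutions, 0.5% DMSO final; four-parameter logistic EC50, usually geometric mean of ≥2 days.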

AC50 (APOL1 G2 [1]) [µM] | Compound | EC50 (APOL1 G2 [2]) [µM]
0.379 | CC(c1ccc(OC[C@@H]2CN(CCc3cccc(Cl)c3)CCN2)cc1)S(C)(=O)=O (stereo partly drawn) [Compound 140, (3S)-1-[2-(3-chlorophenyl)ethyl]-3-{[4-(1-methanesulfonylethyl)phenoxy]methyl}piperazine] | 0.756
0.936 | C[C@H]1C[C@H](COc2ccc(S(C)(=O)=O)cc2)CN1CCc1cccc(Cl)c1 [Compound 143, (2S,4S)-1-[2-(3-chlorophenyl)ethyl]-4-[(4-methanesulfonylphenoxy)methyl]-2-methylpyrrolidine] | 1.2
1.13 | C[C@@H]1C[C@@H](COc2ccc(S(C)(=O)=O)cc2)CN1CCc1cccc(Cl)c1 [Compound 145, (2R,4R)-1-[2-(3-chlorophenyl)ethyl]-4-[(4-methanesulfonylphenoxy)methyl]-2-methylpyrrolidine] | 1.77
